Test results published in patent US20040152659A1, “Method for the treatment of parkinson's disease comprising administering an A1A2a receptor dual antagonist” (Fujisawa Pharmaceutical Co. Ltd., priority 1999, published 2004).

How the values were obtained:
[1] = molecular target: T1, human recombinant A1 receptors (Homo sapiens, UniProt P30542); assay: Estimation of Adenosine A1-receptor antagonizing activity ([3H]-DPCPX binding, CHO cell membrane fractions)
T1 construct: expressed in transfected cells; host or cells: CHO cells
T1 sequence (P30542 1-326): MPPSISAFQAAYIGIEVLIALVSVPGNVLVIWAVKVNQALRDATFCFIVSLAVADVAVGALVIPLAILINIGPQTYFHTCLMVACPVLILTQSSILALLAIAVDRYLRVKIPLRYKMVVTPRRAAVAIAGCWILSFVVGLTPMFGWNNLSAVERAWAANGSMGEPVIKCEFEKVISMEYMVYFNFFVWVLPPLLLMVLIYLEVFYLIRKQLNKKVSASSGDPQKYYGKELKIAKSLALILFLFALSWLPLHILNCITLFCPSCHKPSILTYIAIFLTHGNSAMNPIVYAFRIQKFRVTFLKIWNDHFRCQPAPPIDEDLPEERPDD
Source text: (§1) The existence and intensity of “adenosine A1-receptor antagonizing activity” and/or “adenosine A2a-receptor antagonizing activity” can be ascertained and assessed typically by the following test method. The intensity of adenosine A1-receptor antagonizing action and of adenosine A2a-receptor antagonizing action as referred to in the appended claims also means the value found by the method described below.
(§2) “Estimation of Adenosine A1 and A2a-receptor antagonizing activity”
(§3) Membrane fractions prepared from the CHO cells which transfected stably with human recombinant A1 or A2a receptors were incubated for 1 hr at 25° C. with test compounds, ADA, 50 mM Tris buffer and [3H]-DPCPX (final 4 nM) or [3H]-CGS21680 (final 15 nM), respectively. Reaction mixtures were filtrated with 96-well harvestor to separate free ligands from bound fraction using GF/C filter. Radioactivity of the dried filter was counted, and specific binding of each labelled rigands was calculated.

[2] = molecular target: T2, human recombinant A2a receptors (Homo sapiens, UniProt P29274); assay: Estimation of Adenosine A2a-receptor antagonizing activity ([3H]-CGS21680 binding, CHO cell membrane fractions); conditions: at a concentration of 1.0×10^−6 M; [3H]-CGS21680 15 nM; read-out: inhibition rate for Adenosine A2a-receptor
T2 construct: expressed in transfected cells; host or cells: CHO cells
Source text: as §1, §2, §3

[3] = test system: Male Wistar rats; assay: Test 3 Impaired-memory ameliorating action (scopolamine-impaired retention trial); assay type: in vivo; conditions: scopolamine 1 mg/kg i.p. + test compound 1 mg/kg i.p. immediately after acquisition trial, scopolamine + control 80.2 ± 34.9, intact 300 ± 0
Protocol: Test 3 Impaired-Memory Ameliorating Action
Male Wistar rats were serially subjected to an acclimation trial, an acquisition trial 1 hour after the acclimation trial, and a retention trial 24 hours after the acquisition trial. Scopolamine 1 mg/kg was intraperitoneally administered 30 minutes before the acquisition trial. The test compound was intraperitoneally administered immediately after the acquisition trial.

[4] = test system: male SD rats; assay: Test 2 Anxiolytic action (social interaction test); assay type: in vivo; conditions: 0.32 mg/kg oral 1 h before test, 15 min observation, control 51.3 ± 6.0
Protocol: Two male SD rats acclimated for 1 week and handled once were used in sets. One hour before beginning of the test, both rats in each set were orally dosed with the same amount of the test compound or the vehicle. Immediately thereafter, both rats were placed in a new environment where territories were to be established as yet and their behaviors were monitored and recorded over 15 minutes. After the test, the records were analyzed and evaluated in terms of the total duration of social interaction (social interaction time) (observation items: sniffing, following, grooming, kicking, boxing, biting, wrestling, crawling under or over the partner).

[5] = test system: Mice; assay: Test 1 Anticataleptic action (haloperidol-induced catalepsy); assay type: in vivo; conditions: 1 mg/kg oral, 30 min before haloperidol 0.32 mg/kg i.p., observed 30 min later, control 100
Protocol: Test 1 Anticataleptic Action
Mice were orally dosed with the test compound as a suspention in 0.5% of methyl cellulose and, 30 minutes later, intraperitoneally dosed with 0.32 mg/kg of haloperidol.

T2 sequence (P29274 whole entry): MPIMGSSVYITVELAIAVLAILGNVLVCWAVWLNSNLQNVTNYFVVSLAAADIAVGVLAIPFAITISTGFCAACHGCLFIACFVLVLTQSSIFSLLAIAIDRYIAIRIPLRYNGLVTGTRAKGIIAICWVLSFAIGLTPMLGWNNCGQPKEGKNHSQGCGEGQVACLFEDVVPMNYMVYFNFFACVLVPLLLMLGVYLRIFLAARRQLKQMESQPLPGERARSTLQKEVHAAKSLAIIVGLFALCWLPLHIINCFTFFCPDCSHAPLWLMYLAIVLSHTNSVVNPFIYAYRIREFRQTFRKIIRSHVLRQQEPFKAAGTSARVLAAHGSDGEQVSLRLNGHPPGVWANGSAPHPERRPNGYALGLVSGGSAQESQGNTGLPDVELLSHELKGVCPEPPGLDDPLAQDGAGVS

O=c1ccc(-c2c(-c3ccccc3)nn3ccccc23)nn1Cc1nccs1 [(A), 3-[2-(Thiazol-2-ylmethyl)-3-oxo-2,3-dihydropyridazin-6-yl]-2-phenylpyrazolo[1,5-a]pyridine]
affinity for the adenosine A1-receptor relative to affinity for the adenosine A2a receptor ([1]; A1 affinity as a multiple of A2a affinity): 36 times
inhibition at 1 µM ([1]; at a concentration of 1.0×10^−6 M, [3H]-DPCPX 4 nM, read-out: inhibition rate for Adenosine A1-receptor): ≥ 80%
inhibition at 1 µM [2]: ≥ 80%
Reaction latency in retention trial [3]: 215.6 ± 35.0 s
Social interaction time [4]: 90.5 ± 12.5 s
Incidence of catalepsy [5]: 20%
